The source of these data is patent US5004747A, “Isoquinolinones” (May & Baker Limited, priority 1988, dated 1991).

By inhibition is commonly meant the change of the read-out against control, counted positive when it falls. Read a low inhibition as a response near the control.

The assay concerns the target T1, rat hepatic microsomal HMG CoA reductase (Rattus norvegicus, UniProt P51639).
T1 construct: rat hepatic microsomal HMG CoA reductase; from tissue; host or cells: rat liver microsomes
T1 sequence (P51639 1-887): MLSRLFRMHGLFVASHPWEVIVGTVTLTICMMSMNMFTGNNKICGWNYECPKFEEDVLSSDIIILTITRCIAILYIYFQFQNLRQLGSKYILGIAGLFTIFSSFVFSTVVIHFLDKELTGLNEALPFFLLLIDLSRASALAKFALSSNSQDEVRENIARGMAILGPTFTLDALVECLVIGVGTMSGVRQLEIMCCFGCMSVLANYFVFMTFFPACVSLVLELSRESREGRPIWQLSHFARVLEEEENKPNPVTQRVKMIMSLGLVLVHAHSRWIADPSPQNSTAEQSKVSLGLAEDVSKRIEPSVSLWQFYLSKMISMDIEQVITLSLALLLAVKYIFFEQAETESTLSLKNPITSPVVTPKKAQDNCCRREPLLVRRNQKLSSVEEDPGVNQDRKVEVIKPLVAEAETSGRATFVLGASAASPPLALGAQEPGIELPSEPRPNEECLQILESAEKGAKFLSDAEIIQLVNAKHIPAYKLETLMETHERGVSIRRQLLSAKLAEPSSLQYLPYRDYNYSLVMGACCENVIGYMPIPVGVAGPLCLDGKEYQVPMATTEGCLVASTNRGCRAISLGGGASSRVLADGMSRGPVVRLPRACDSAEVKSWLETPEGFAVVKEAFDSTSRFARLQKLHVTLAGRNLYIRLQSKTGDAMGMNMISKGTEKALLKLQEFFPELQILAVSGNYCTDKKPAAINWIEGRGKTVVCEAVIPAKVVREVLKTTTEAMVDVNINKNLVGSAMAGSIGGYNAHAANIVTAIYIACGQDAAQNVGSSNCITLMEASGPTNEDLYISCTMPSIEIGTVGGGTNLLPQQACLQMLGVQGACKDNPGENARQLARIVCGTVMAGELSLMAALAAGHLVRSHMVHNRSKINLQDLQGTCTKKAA
Briefly: inhibition of rat hepatic microsomal HMG CoA reductase activity in vitro (Table I). It counts as biochemical. The conditions noted are these: for inhibition at 0.082 µg/mL: 0.082 micrograms/ml; for inhibition at 0.25 µg/mL: 0.25 micrograms/ml; for inhibition at 0.74 µg/mL: 0.74 micrograms/ml; for inhibition at 2.22 µg/mL: 2.22 micrograms/ml; for inhibition at 6.66 µg/mL: 6.66 micrograms/ml; for inhibition at 20 µg/mL: 20.0 micrograms/ml; for inhibition at 0.0274 µg/mL: 0.0274 micrograms/ml; for inhibition at 2 µg/mL: 2.0 micrograms/ml; for inhibition at 0.24 µg/mL: 0.24 micrograms/ml. From the text: In the table the concentrations of the test compounds are expressed in micrograms/ml.

Molecule `CC(C)c1c(/C=C/[C@@H]2C[C@@H](O)CC(O)O2)n(-c2ccc(F)cc2)c(=O)c2ccccc12` (mixture of isomers) [Compound M, (2RS,4R,6S)-(E)-2,4-dihydroxy-6-[2-(2-(4-fluorophenyl)-4-isopropyl-1-oxo-1,2-dihydroisoquinolin-3-yl)ethen-1-yl]-3,4,5,6-tetrahydro-2H-pyran] registered an inhibition at 0.082 µg/mL of 27%, an inhibition at 0.25 µg/mL of 18%, an inhibition at 0.74 µg/mL of 31% and an inhibition at 2.22 µg/mL of 44%. The same molecule came in with an inhibition at 6.66 µg/mL of 56% and an inhibition at 20 µg/mL of 72%.

Molecule `CC(C)c1c(/C=C/[C@@H]2C[C@@H](O)CC(=O)O2)n(CC2CCCCC2)c(=O)c2ccccc12` [AB, (4R,6S)-(E)-6-(2-(2-cyclohexylmethyl-4-isopropyl-1-oxo-1,2-dihydroisoquinolin-3-yl)ethen-1-yl)-4-hydroxy-3,4,5,6-tetrahydro-2H-pyran-2-one] displayed an inhibition at 0.74 µg/mL of 20%, an inhibition at 2.22 µg/mL of 41% and an inhibition at 6.66 µg/mL of 66%.

Molecule `CC(C)n1c(/C=C/[C@@H](O)C[C@@H](O)CC(=O)O)c(-c2ccc(F)cc2)c2ccccc2c1=O` [AF, sodium (3R,5S)-(E)-3,5-dihydroxy-7-(4-(4-fluorophenyl)-2-isopropyl-1-oxo-1,2-dihydroisoquinolin-3-yl)hept-6-enoate] registered an inhibition at 0.0274 µg/mL of 15%, an inhibition at 0.082 µg/mL of 38%, an inhibition at 0.25 µg/mL of 65% and an inhibition at 0.74 µg/mL of 83%. The molecule further showed an inhibition at 2.22 µg/mL of 93% and an inhibition at 6.66 µg/mL of 95%.

In turn, `CC(C)c1c(/C=C/[C@@H](O)C[C@@H](O)CC(=O)O)n(-c2ccc(F)cc2)c(=O)c2ccccc12` [AG, sodium (3R,5S)-(E)-3,5-dihydroxy-7-(2-(4-fluorophenyl)-4-isopropyl-1-oxo-1,2-dihydroisoquinolin-3-yl)hept-6-enoate] yielded an inhibition at 0.0274 µg/mL of 15%, an inhibition at 0.082 µg/mL of 57%, an inhibition at 0.25 µg/mL of 74% and an inhibition at 0.74 µg/mL of 89%. For the same molecule, the inhibition at 2.22 µg/mL worked out at 96%.

For the molecule `CC(C)c1c(CC[C@@H]2C[C@@H](O)CC(=O)O2)n(-c2ccc(F)cc2)c(=O)c2ccccc12` [AH, (4R,6R)-6-[2-{2-(4-fluorophenyl)-4-isopropyl-1-oxo-1,2-dihydroisoquinolin-3-yl}ethyl]-4-hydroxy-3,4,5,6-tetrahydro-2H-pyran-2-one], the inhibition at 0.082 µg/mL is 33%, the inhibition at 0.25 µg/mL was 31%, the inhibition at 0.74 µg/mL was 47% and 2.22 µg/mL produced 61% inhibition. Also, the inhibition at 6.66 µg/mL stood at 79% and the inhibition at 20 µg/mL was found to be 91%.

The molecule `CC(C)n1c(CC[C@@H]2C[C@@H](O)CC(=O)O2)c(-c2ccc(F)cc2)c2ccccc2c1=O` [AI, (4R,6R)-6-(2-(4-(4-fluorophenyl)-2-isopropyl-1-oxo-1,2-dihydroisoquinolin-3-yl)ethyl)-4-hydroxy-3,4,5,6-tetrahydro-2H-pyran-2-one] displayed an inhibition at 0.082 µg/mL of 16%, an inhibition at 0.25 µg/mL of 38%, an inhibition at 0.74 µg/mL of 62% and an inhibition at 2.22 µg/mL of 81%. Also, 6.66 µg/mL produced 92% inhibition.

`Cn1c(/C=C/C(O)CC(O)CC(=O)O)c(-c2ccccc2)c2ccccc2c1=O` (stereo not drawn) [B, (E)-3,5-dihydroxy-7-(2-methyl-1-oxo-4-phenyl-1,2-dihydroisoquinolin-3-yl)hept-6-enoic acid]: the inhibition at 2 µg/mL was 5% and at 20 µg/mL the inhibition was 65%.

In the case of `Cn1c(/C=C/C(O)CC(O)CC(=O)O)c(-c2ccccc2)c2ccccc2c1=O` (stereo not drawn) [BA, sodium (E)-3,5-dihydroxy-7-(2-methyl-1-oxo-4-phenyl-1,2-dihydroisoquinolin-3-yl)hept-6-enoate], testing at 2 µg/mL gave an inhibition of 0% and 20 µg/mL produced 61% inhibition.

`CCOC(=O)CC(O)CC(O)/C=C/c1c(-c2ccc(F)cc2)c2ccccc2c(=O)n1C(C)C` (stereo not drawn) [Compound D, ethyl (E)-3,5-dihydroxy-7-[4-(4-fluorophenyl)-2-isopropyl-1-oxo-1,2-dihydroisoquinolin-3-yl]hept-6-enoate] showed an inhibition at 0.24 µg/mL of 11%, an inhibition at 0.74 µg/mL of 35%, an inhibition at 2.22 µg/mL of 62% and an inhibition at 6.66 µg/mL of 85%. The molecule also had an inhibition at 20 µg/mL of 94%.

`CC(C)n1c(/C=C/C(O)CC(O)CC(=O)O)c(-c2ccc(F)cc2)c2ccccc2c1=O` (stereo not drawn) [Compound E, (E)-3,5-dihydroxy-7-[4-(4-fluorophenyl)-2-isopropyl-1-oxo-1,2-dihydroisoquinolin-3-yl]hept-6-enoic acid] yielded an inhibition at 0.24 µg/mL of 15%, an inhibition at 0.74 µg/mL of 28%, an inhibition at 2.22 µg/mL of 61% and an inhibition at 6.66 µg/mL of 82%. Besides, 20 µg/mL produced 94% inhibition.

Consider `CC(C)n1c(/C=C/C(O)CC(O)CC(=O)O)c(-c2ccc(F)cc2)c2ccccc2c1=O` (stereo not drawn) [Compound F, sodium (E)-3,5-dihydroxy-7-[4-(4-fluorophenyl)-2-isopropyl-1-oxo-1,2-dihydroisoquinolin-3-yl]hept-6-enoate], for which the inhibition at 0.24 µg/mL was found to be 37%, the inhibition at 0.74 µg/mL came out at 59%, the inhibition at 2.22 µg/mL came to 80% and testing at 6.66 µg/mL gave an inhibition of 91%. Further, at 20 µg/mL the inhibition was 97%.

As to `CC(C)n1c(/C=C/C2CC(O)CC(=O)O2)c(-c2ccc(F)cc2)c2ccccc2c1=O` (stereo not drawn) [Compound G, (E)-4-hydroxy-6-[2-{4-(4-fluorophenyl)-2-isopropyl-1-oxo-1,2-dihydroisoquinolin-3-yl}ethenyl]-3,4,5,6-tetrahydro-2H-pyran-2-one], testing at 0.082 µg/mL gave an inhibition of 14%, the inhibition at 0.25 µg/mL turned out to be 29%, the inhibition at 0.74 µg/mL stood at 58% and the inhibition at 2.22 µg/mL worked out at 81%. This molecule also returned an inhibition at 6.66 µg/mL of 93% and an inhibition at 20 µg/mL of 97%.

The molecule `CC(C)c1c(/C=C/[C@@H]2C[C@@H](O)CC(=O)O2)n(-c2ccc(F)cc2)c(=O)c2ccccc12` [Compound I, (4R,6S)-(E)-4-hydroxy-6-[2-{2-(4-fluorophenyl)-4-isopropyl-1-oxo-1,2-dihydroisoquinolin-3-yl}ethen-1-yl]-3,4,5,6-tetrahydro-2H-pyran-2-one] gave an inhibition at 0.0274 µg/mL of 25%, an inhibition at 0.082 µg/mL of 48%, an inhibition at 0.25 µg/mL of 72% and an inhibition at 0.74 µg/mL of 88%. The molecule also yielded an inhibition at 2.22 µg/mL of 96%.

`COC(=O)C[C@H](O)C[C@H](O)/C=C/c1c(-c2ccc(F)cc2)c2ccccc2c(=O)n1C(C)C` [Compound J, methyl (3R,5S)-(E)-3,5-dihydroxy-7-[4-(4-fluorophenyl)-2-isopropyl-1-oxo-1,2-dihydroisoquinolin-3-yl]hept-6-enoate]: at 0.0274 µg/mL the inhibition was 13%, the inhibition at 0.082 µg/mL was determined as 28%, the inhibition at 0.25 µg/mL stood at 55% and the inhibition at 0.74 µg/mL came to 79%. This molecule also displayed an inhibition at 2.22 µg/mL of 92%.
